Like-named read-outs stand apart in the source and are kept apart here.
Legend:
[1] = system: patients with schizophrenia; details: cited from earlier work
NMDA receptors = details: Wang and Liang 1998; cited from earlier work
schizophrenic subjects = assay: Negative symptom improvement (SADSneg subscale) over six months of clozapine treatment, by GRIN2B T5988C genotype; assay type: in vivo, human; details: after six months of clozapine treatment, baseline as covariate
Protocol: Our sample consisted of 90 schizophrenic subjects treated with clozapine. The majority of the patients were Caucasian. The second most represented ethnicity was African American. The ratio of males to females was approximately 2.5:1. The overall response to clozapine treatment over six months was assessed using the Brief Psychiatric Rating Scale (BPRS) and the Schedule for Affective Disorders and Schizophrenia (SADS). The sample is composed of a group of patients from the Cleveland area (obtained from Dr. H. Y Meltzer, Case Western Reserve University), as part of a multisite coordinated clinical trial of clozapine response. Data on the specific assessment of negative symptom improvement in response to clozapine treatment were collected over a six month period (baseline minus 6 month score). Negative symptom improvement over a period of six months was assessed using the Brief Psychiatric Rating Scale subscale for negative symptoms (BPRSneg), and the Schedule for Affective Disorders and Schizophrenia subscale for negative symptoms (SADSneg).
Analysis of Covariance (ANCOVA) was performed in order to test the effect of genotype on negative symptom improvement as measured by the SADSneg subscale. The baseline score for the SADSneg, assessed before the clozapine treatment was started, was used as a covariate, in part to control for regression to the mean effects.

[2] = system: neurotoxicity induced by NMDA receptor antagonists; details: Farber 1993, 1996; Olney 1994; cited from earlier work
[3] = system: NMDA-receptor-mediated neurotransmission; details: Arvanov et al. 1997; cited from earlier work
[4] = system: PCP-induced social withdrawal; details: rats (Corbett et al. 1995); cited from earlier work
[5] = target: glycine binding site associated with the NMDAR complex (Homo sapiens, UniProt Q05586); details: cited from earlier work
NMDA receptor = details: at therapeutic levels (Lidsky et al. 1993); cited from earlier work
[6] = added to conventional antipsychotics

Structure (SMILES): N[C@@H]1CONC1=O [D-cycloserine]
- effect on negative symptoms ([1]; added to clozapine): worsening of negative symptoms
- effect on negative symptoms [1, 6]: significantly improved
- performance on a cognitive battery [1, 6]: did not improve

Structure (SMILES): COc1cccc([C@H](O)C2CCN(CCc3ccc(F)cc3)CC2)c1OC [M100907]
- prevention of PCP-induced blockade of NMDA receptors (NMDA receptors): prevented

Structure (SMILES): CN1CCN(C2=Nc3cc(Cl)ccc3Nc3ccccc32)CC1 [clozapine]
- SADSneg mean (mean converted change score, baseline minus 6 month score) (schizophrenic subjects; GRIN2B 5988 C C genotype): 1.3
- SADSneg mean (mean converted change score, baseline minus 6 month score) (schizophrenic subjects; GRIN2B 5988 C T genotype): 1.26
- SADSneg mean (mean converted change score, baseline minus 6 month score) (schizophrenic subjects; GRIN2B 5988 T T genotype): 1.87

Structure (SMILES): CN1CCN(C2=Nc3cc(F)ccc3Cc3ccccc32)CC1 [fluperlapine]
- prevention of neurotoxicity induced by NMDA receptor antagonists [2]: strongly prevented

Structure (SMILES): O=C(CCCN1CCC(O)(c2ccc(Cl)cc2)CC1)c1ccc(F)cc1 [haloperidol]
- enhancement of NMDA-receptor-mediated neurotransmission [3]: not
- prevention of neurotoxicity induced by NMDA receptor antagonists [2]: intermediate effectiveness
- reversal of PCP-induced social withdrawal [4]: not
- mode of action at the glycine binding site associated with the NMDAR complex ([5]; Lidsky et al. 1997): partial agonist
- effect on NMDA receptor activity ([5]; in the absence of glycine (Lidsky et al. 1997)): augmented
- displacement of the ligand [3H]MK801 from the NMDA receptor (NMDA receptor): not

Structure (SMILES): Cc1nc2n(c(=O)c1CCN1CCC(c3noc4cc(F)ccc34)CC1)CCCC2 [risperidone]
- reversal of PCP-induced social withdrawal [4]: not

Structure (SMILES): CSc1ccc2c(c1)N(CCC1CCCCN1C)c1ccccc1S2 (stereo not shown) [thioridazine]
- prevention of neurotoxicity induced by NMDA receptor antagonists [2]: intermediate effectiveness

Reference: patent US7794934B2, “Predicting negative symptom change during drug treatment” (Centre for Addiction and Mental Health, priority 2006, dated 2010)
